The subject of assay [1] is IC patients. The experiment in a line: heparin versus PPS in the intravesical therapeutic solution (preliminary data). It is filed as in vivo, human. The text has this: Data from preliminary studies for one embodiment of an intravesical therapeutic solution can provide immediate temporary relief of the symptoms of urgency and pain in IC patients [Dell and Parsons, Abstract presented at NIDDK/Interstitial Cystitis Association Symposium, Research Insights into Interstitial Cystitis, Alexandria, Va., (Oct. 30-Nov. 1, 2003); Davis, et al. Abstract presented at NIDDK/Interstitial Cystitis Association Symposium, Research Insights into Interstitial Cystitis, Alexandria, Va. (Oct. 30-Nov. 1, 2003); Parsons, Contemp Urol 15: 22-24, 27-28, 31-32, 35 (2003)]. One of the methods of the present invention combines heparin and lidocaine buffered with sodium bicarbonate to pH >8.0 via direct catheter delivery to the bladder, providing immediate and long term pain relief for chronic IC sufferers. In some embodiments, the solution contains 10,000-40,000 units of heparin. In some embodiments, heparin is replaced by 100-200 mg PPS (the contents of an oral capsule dissolved in 10 mL buffered normal saline), 10 mL 1% lidocaine or 16 mL 2% lidocaine, and 3 mL 8.4% sodium bicarbonate (w/v). The solution is instilled into the empty bladder and retained for approximately 30 minutes. The principal difference between this therapeutic solution and other such solutions is the presence of sodium bicarbonate, which dramatically increases the absorption of the lidocaine. […]

In assay [2] the test system is IC patients. The settings on record: intravesical DMSO therapy; cited from earlier work.
The subject of the next assay is IC. The settings on record: oral PPS, after 8 to 12 months of therapy; cited from earlier work.

In the case of heparin, in the assay with IC patients [1], the “efficacy in the therapeutic solution, heparin compared with PPS” value is given as “equal efficacy”.

With `C[S+](C)[O-]` [DMSO, dimethylsulfoxide], the “IC patients treated who benefit” value in the assay on IC patients [2] is on record as “approximately 50%”.

For the compound pentosan polysulfate sodium [PPS], the “efficacy in the therapeutic solution, heparin compared with PPS” value in the assay with IC patients [1] is reported as “equal efficacy”. Also, the response rate result in the assay on IC is on record as “approximately 70%”.

Source of the values: patent US9486474B2, “Interstitial therapy for immediate symptom relief and chronic therapy in interstitial cystitis” (THE REGENTS OF THE UNIVERSITY OF CALIFORNIA, priority 2004, dated 2016).
